Target: T1, aldosterone receptor (Rattus norvegicus, UniProt P22199)
T1 construct: from tissue; host or cells: whole animal: adrenalectomised male Sprague-Dawley rats
T1 sequence (P22199 1-981): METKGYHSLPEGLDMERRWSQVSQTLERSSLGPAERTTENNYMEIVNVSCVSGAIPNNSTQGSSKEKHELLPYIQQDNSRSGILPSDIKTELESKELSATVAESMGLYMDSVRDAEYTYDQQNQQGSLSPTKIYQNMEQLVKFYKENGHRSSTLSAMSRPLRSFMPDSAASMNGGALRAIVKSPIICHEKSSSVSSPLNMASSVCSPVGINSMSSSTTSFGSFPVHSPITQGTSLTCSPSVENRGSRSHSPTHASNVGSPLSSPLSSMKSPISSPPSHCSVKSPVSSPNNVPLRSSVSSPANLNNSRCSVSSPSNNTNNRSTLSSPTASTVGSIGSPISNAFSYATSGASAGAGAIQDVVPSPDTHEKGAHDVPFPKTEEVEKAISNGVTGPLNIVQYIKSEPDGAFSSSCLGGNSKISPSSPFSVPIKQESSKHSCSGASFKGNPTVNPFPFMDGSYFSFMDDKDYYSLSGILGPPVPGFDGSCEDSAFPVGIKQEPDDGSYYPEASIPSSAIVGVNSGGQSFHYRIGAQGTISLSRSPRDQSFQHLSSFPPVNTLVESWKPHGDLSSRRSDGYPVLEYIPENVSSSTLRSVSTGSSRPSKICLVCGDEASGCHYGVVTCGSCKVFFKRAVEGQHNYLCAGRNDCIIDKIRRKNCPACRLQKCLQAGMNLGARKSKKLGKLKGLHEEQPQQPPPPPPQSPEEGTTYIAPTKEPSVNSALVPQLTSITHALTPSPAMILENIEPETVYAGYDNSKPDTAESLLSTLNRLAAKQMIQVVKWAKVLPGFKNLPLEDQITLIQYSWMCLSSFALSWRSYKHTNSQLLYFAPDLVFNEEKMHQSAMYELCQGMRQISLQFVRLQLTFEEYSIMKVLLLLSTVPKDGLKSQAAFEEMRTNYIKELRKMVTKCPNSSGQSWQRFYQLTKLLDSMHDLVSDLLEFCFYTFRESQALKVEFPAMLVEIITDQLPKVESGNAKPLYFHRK
Assay: Kagawa model, urinary Na+/K+ ratio in adrenalectomised rats given aldosterone
Type: in vivo
Conditions: adrenalectomized rats, oral gavage, aldosterone 3 μg/animal s.c.
Source text: To evaluate the in vivo activity of test compounds as aldosterone receptor antagonists, the Kagawa model was used, with some modifications. The original model first described by Kagawa (Endocrinology 1960; 67:125-131) has been widely utilised and reported in several published papers.
Bilateral adrenalectomised male Spague-Dawley rats aging approximately 5 weeks and weighing between 150 and 170 g at the time of surgery were obtained from Charles River (UK) Ltd., Margate, Kent. Following adrenalectomy, animals were maintained with standard diet and 0.9% (w/v) saline to drink. Saline replaces sodium ions lost due to the absence of the adrenal glands.
The animals were maintained for three days in standard condition and were trained in metabolic cages on one occasion prior to the test day for approximately 5 hours.
Food was withheld from animals overnight prior to dosing. Saline was available ad libitum.
Approximately 2 hours before dosing, saline was removed from the animals to ensure similar hydration levels. […]
The cumulative urine volume was measured and collected for analysis at 0-3 and 3-6 hours post-aldosterone. Urine was analysed for urinary sodium and potassium concentration. […]
Mean Na^+:K^+ ratios from each group were calculated. […]
The data were analysed using one-way Analysis of Variance (ANOVA). […]

CCS[C@@H]1CC2=CC(=O)CC[C@]2(C)C2=CC[C@@]3(C)C(CC[C@@]34CCC(=O)O4)C21 (stereo partly shown) [Example 13]
urinary Na+/K+ ratio relative to animals only receiving aldosterone: statistically significant increase
